The text below walks through data of PubChem BioAssay AID2060511 (Molecular Pharmacology Branch, DTP, NCI, 2025).

As a reminder, the viability, T/C is the result in the treated group divided by that in the control group, in per cent. In general, IC50 refers to the concentration that gives 50% inhibition.

Values joined by “and” are separate entries in the source; they are usually repeats but may differ in a detail not shown here. Equal entries are not always repeated. A value given as a limit tells only on which side of the number the result lay.

This assay relates to 422866-222-R5-J1-PDC spheroids with HUVEC/MSC, viability. As to the kind of experiment: Anticancer human tumor 422866-222-R5-J1-PDC patient-derived pancreatic adenocarcinoma cell line growth inhibition [GQUAD]. The settings on record: for viability, T/C: stronger effect = lower value. The text has this: DNA G-quadruplex Stabilizer Agents in Combinations in Complex Spheroids
A high-throughput screen of multi-cell type tumor spheroids was designed to identify active combinations of DNA G-quadruplex stabilizer agents and targeted small molecules. Complex spheroids include a stromal component modeled by human endothelial cells (HUVEC) and fibroblasts modeled by human mesenchymal stem cells (MSCs). The concentration ranges selected for each drug and investigational agent were based upon clinically achievable concentrations if the clinical Cmax of the agent was known.
Compounds. The drugs and investigational agents: pidnarulex (CX-5461; NSC782164), APTO-253 (NSC789042), BRACO-19 (NSC847499), peposertib (NSC802822), ceralasertib (NSC780249), elimusertib (NSC800525), camonsertib (NSC841442), AZD-1390 (NSC803789), olaparib (NSC753686), talazoparib (NSC767125), ART-558 (NSC835418), sotorasib (NSC818433), MRTX-1133 (NSC836407), SN-38 (NSC673596), topotecan (NSC609699), etoposide (NSC141540), doxorubicin (NSC123127), gemcitabine (NSC613327), 5-fluorouracil (NSC19893), paclitaxel (NSC125973), vemurafenib (NSC761431), panobinostat (NSC761190), R-306465 (JNJ-16241199; NSC773264), adavosertib (NSC754352), TP-3654 (NSC805149), carboplatin (NSC241240), KSQ-4279 (NSC840948), and staurosporine (NSC755774) were obtained from the National Cancer Institute (NCI) Developmental Therapeutics Program Chemical Repository (34). The FDA-approved anticancer drug set is available from the NCI Developmental Therapeutics Program. […] The stock solutions were prepared in dimethyl sulfoxide (DMSO, Sigma-Aldrich, St. Louis, MO, cat. D2650) at 800-fold the tested concentration and stored at -70 degrees C prior to their use. All drugs and investigational agents were tested over a range starting from a high concentration at or near the clinical Cmax and decreasing in half-log increments. If the clinical Cmax for an agent had not been determined, the highest concentration tested was 10 microM.
2.3 Cell Culture. All cells were maintained in an incubator at 37 degrees C and 5% CO2 with 95% humidity. The PDC lines were cultured according to standard operating procedures established by the NCI PDMR. All PDCs were thawed and cultured in Matrigel-coated flasks prepared with a working solution of 1X Ham's F-12 nutrient mix, without supplementation (Invitrogen, cat. 11765054), 100 U/mL penicillin-streptomycin (Invitrogen, cat. 15140122), and 2.5% Matrigel (Corning Inc., cat. 354248) for the first three passages. The 857933-349-R-J2-PDC line was cultured in 6C/Colon 1B media, which includes advanced DMEM/F-12 (Thermo Fisher Scientific, cat. 12634028), 10 mM HEPES (Thermo Fisher Scientific, cat. 15630080), 1X GlutaMAX supplement (Thermo Fisher Scientific, cat. 35050061), 0.1 mg/mL primocin (InvivoGen, cat. ant-pm-2), 10% defined fetal bovine serum, heat inactivated (HyClone Laboratories Inc., cat. SH30070.03HI), 50% L-WRN conditioned media (ATCC, cat. CRL-3276), 1.25 mM N-Acetyl-L-cysteine (Sigma-Aldrich, cat. A9165), 10 mM nicotinamide (Sigma-Aldrich, cat. N0636), 1X B-27 supplement (Thermo Fisher Scientific, cat. 17504044), 1X N-2 supplement (Thermo Fisher Scientific, cat. 17502048), 10 microM Y-27632 dihydrochloride (Tocris Bioscience, cat. 1254), and 50 ng/mL human EGF recombinant protein (Thermo Fisher Scientific, cat. PHG0311). The 485176-168-R4-J1-PDC line was cultured in Panc media, which includes all 6C/Colon 1B media components plus 100 ng/mL human FGF-10 (Thermo Fisher Scientific, cat. 100-26), 500 nM SB-431542 (Selleckchem, cat. S1067), and gastrin (Tocris, cat. 3006).
[…]
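Also: spheroids exposed to compounds for seven days before reading.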
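For viability, T/C in this document: percent viability relative to DMSO vehicle control taken as 100%.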

As for `CN(C)c1ccc(Nc2c3ccc(NC(=O)CCN4CCCC4)cc3nc3cc(NC(=O)CCN4CCCC4)ccc23)cc1`, the viability, T/C is, setting by setting: (compound 0.0316 µM) 96.4% [middle of 12 runs]; (compound 0.1 µM) 96.8% [middle of 12 runs]; (compound 1 µM) 90.4% [middle of 12 runs]; (compound 3.16 µM) 96% [middle of 12 runs]. Further, for the setting “compound alone, run of 04/22/2024”, the IC50 is more than 10000 nM.

Take `COc1cc(C2c3cc4c(cc3C(OC3OC5COC(C)OC5C(O)C3O)C3COC(=O)C23)OCO4)cc(OC)c1O` (centres undefined): the viability, T/C was 102% and 106% and 103% (compound 0.0316 µM); 84% and 84.1% and 90.4% (compound 0.1 µM); 72.1% and 81.7% and 80.7% (compound 0.316 µM); 62.7% and 51.7% and 55.9% (compound 1 µM); 40.4% and 40.3% and 45% (compound 3.16 µM); 38% and 35.9% and 40.2% (compound 10 µM). For the same compound, the IC50 (curve of compound) was 2160 nM and 1550 nM and 2000 nM.

`COc1ccc([C@@H](O)c2cc(-c3ncnc4cc(N5CCOCC5)ccc34)c(F)cc2Cl)nn1`: the viability, T/C is 82.4% and 103% and 110% (compound 0.0316 µM); 76.2% and 78.4% and 99% (compound 0.1 µM); 81.6% and 86% and 90.4% (compound 0.316 µM); 63.3% and 76.9% and 70.8% (compound 1 µM); 51.5% and 44.1% and 60.7% (compound 3.16 µM); 36.9% and 35.1% and 47.2% (compound 10 µM). Further, under “curve of compound”, the half-maximal inhibitory concentration (IC50) was 3150 nM and 2620 nM and 7880 nM.

In the case of `COc1cccc2c1C(=O)c1c(O)c3c(c(O)c1C2=O)CC(O)(C(=O)CO)CC3OC1CC(N)C(O)C(C)O1` (centres undefined), the viability, T/C is, setting by setting: (compound 0.0316 µM) 94.3% and 90.9% and 92.6%; (compound 0.1 µM) 58.5% and 62.5% and 78.8%; (compound 0.316 µM) 61.9% and 57.1% and 68.5%; (compound 1 µM) 41.8% and 51.2% and 47.5%; (compound 3.16 µM) 35.5% and 35.9% and 29.4%; (compound 10 µM) 32% and 40.5% and 31.3%. In addition, where the note is “curve of compound”, the 50% inhibitory concentration (IC50) was 421 nM and 585 nM and 812 nM.

Take `Cc1[nH]c2ccccc2c1CCNCc1ccc(/C=C/C(=O)NO)cc1`: the viability, T/C (compound 0.000999 µM) was 94.9% and 82.3% and 89.6%; the viability, T/C (compound 0.00316 µM) is 90.6% and 106% and 89.9%; the viability, T/C (compound 0.00999 µM) was 110% and 121% and 100%; the viability, T/C (compound 0.0316 µM) is 95.7% and 94.4% and 76.5%; the viability, T/C (compound 0.0999 µM) is 88.5% and 62.9% and 66.2%; the viability, T/C (compound 0.316 µM) is 86.2% and 55.7% and 46.1%. Besides, for the setting “curve of compound”, the half-inhibitory concentration (IC50) is > 316 nM and 254 nM.

For `Cc1cccc(N(C)C(=O)C2C(O)CCN2c2nc(C)cc(C(F)(F)F)c2C#N)c1` (centres undefined), the viability, T/C was 96.3% and 97.3% and 82.4% (compound 0.0316 µM); 103% and 95.9% and 89.9% (compound 0.1 µM); 103% and 102% and 96.2% (compound 0.316 µM); 101% and 96.9% and 109% (compound 1 µM); 99.9% and 77.2% and 105% (compound 3.16 µM); 108% and 97.5% and 98% (compound 10 µM). Where the note is “curve of compound”, the IC50 was more than 10000 nM.

In the case of `Cn1ncnc1[C@H]1c2n[nH]c(=O)c3cc(F)cc(c23)N[C@@H]1c1ccc(F)cc1`, the viability, T/C runs as follows: (compound 0.000999 µM) 91.3% and 88.8% and 87.1%; (compound 0.00316 µM) 107% and 96.2% and 77.8%; (compound 0.00999 µM) 96.3% and 99.6% and 107%; (compound 0.0316 µM) 91.8% and 90.4% and 88.1%; (compound 0.0999 µM) 80.6% and 91.5% and 75.3%; (compound 0.316 µM) 78.1% and 72.3% and 73.5%. Also, the IC50 (curve of compound) is more than 316 nM.

With `Nc1ccn(C2OC(CO)C(O)C2(F)F)c(=O)n1` (centres undefined), the viability, T/C by setting is: (compound 0.0316 µM) 87.9% and 88.9% and 93.4%; (compound 0.1 µM) 66% and 76.8% and 74.1%; (compound 0.316 µM) 61.7% and 70.3% and 61.1%; (compound 1 µM) 51.8% and 55.9% and 40%; (compound 3.16 µM) 41.4% and 48.6% and 40%; (compound 10 µM) 40.8% and 39.7% and 38%. Also, the IC50 (curve of compound) is 993 nM and 2480 nM and 598 nM.

`O=C(NO)c1cnc(N2CCN(S(=O)(=O)c3ccc4ccccc4c3)CC2)nc1`: the viability, T/C was 69.6% and 96.6% and 94.7% (compound 0.0316 µM); 70.9% and 105% and 90% (compound 0.1 µM); 69.7% and 92.5% and 88.2% (compound 0.316 µM); 67% and 52.3% and 58.2% (compound 1 µM); 74.3% and 29.5% and 37.5% (compound 3.16 µM). Besides, under “curve of compound”, the IC50 is > 10000 nM and 1340 nM and 1730 nM.

With `O=C(c1cc(Cc2n[nH]c(=O)c3ccccc23)ccc1F)N1CCN(C(=O)C2CC2)CC1`, the viability, T/C reads like this: (compound 0.0316 µM) 95.7% and 90.6% and 98.8%; (compound 0.1 µM) 89.7% and 88.2% and 93.5%; (compound 0.316 µM) 95.3% and 90.9% and 94%; (compound 1 µM) 81.4% and 92.8% and 99.6%; (compound 3.16 µM) 74% and 86.8% and 84%; (compound 10 µM) 79.3% and 66.8% and 59%. Besides, the half-inhibitory concentration (IC50) (curve of compound) was more than 10000 nM.

`O=c1[nH]cc(F)c(=O)[nH]1`: the viability, T/C runs as follows: (compound 0.0316 µM) 103% and 89.7% and 95.6%; (compound 0.1 µM) 93.4% and 92.9% and 86.8%; (compound 0.316 µM) 91% and 104% and 109%; (compound 1 µM) 88% and 89.2% and 87.2%; (compound 3.16 µM) 78.2% and 73.6% and 76.3%; (compound 10 µM) 71.8% and 68.2% and 62.4%. Besides, the half-maximal inhibitory concentration (IC50) (curve of compound) was more than 10000 nM.
